Data published in the NIST ThermoML archive (doi:10.1016/j.tca.2014.07.018).

Experiment: molar heat capacity at saturation pressure
Details: Crystal, Small (less than 1 g) adiabatic calorimetry

C1C2CC3CC1CC(c1nnn[nH]1)(C2)C3 [5-(1-adamantyl)tetrazole]
Details	molar heat capacity [J/K/mol]
5.162 K	0.5343
5.486 K	0.6514
5.811 K	0.7886
6.141 K	0.9446
6.535 K	1.157
6.999 K	1.433
7.466 K	1.748
7.944 K	2.099
8.427 K	2.496
8.915 K	2.914
9.407 K	3.374
9.905 K	3.847
10.47 K	4.424
11.12 K	5.106
11.77 K	5.817
12.42 K	6.568
13.1 K	7.361
13.77 K	8.166
14.45 K	9.013
15.14 K	9.87
15.93 K	10.87
16.83 K	12.03
17.74 K	13.17
18.65 K	14.31
19.56 K	15.45
20.76 K	16.96
22.25 K	18.79
23.76 K	20.65
25.27 K	22.46
26.78 K	24.22
28.31 K	25.96
29.59 K	27.43
31.31 K	29.26
33.16 K	31.15
35.01 K	33.01
36.86 K	34.76
38.72 K	36.52
40.58 K	38.18
42.54 K	39.91
44.6 K	41.62
46.67 K	43.41
48.74 K	45.04
50.82 K	46.64
52.9 K	48.22
54.99 K	49.8
57.07 K	51.31
59.17 K	52.73
61.28 K	54.19
63.38 K	55.67
65.49 K	57.06
67.6 K	58.52
69.71 K	59.93
71.92 K	61.4
74.24 K	62.88
76.57 K	64.45
78.7 K	65.87
78.9 K	65.93
80.66 K	67.14
81.23 K	67.48
82.56 K	68.36
83.56 K	68.98
84.46 K	69.59
86.37 K	70.82
88.29 K	72.06
90.2 K	73.3
92.12 K	74.53
94.04 K	75.78
95.96 K	77.1
97.9 K	78.34
99.83 K	79.61
101.75 K	80.79
103.69 K	82.06
105.62 K	83.32
107.56 K	84.62
109.51 K	85.87
111.45 K	87.18
113.4 K	88.45
115.36 K	89.75
117.32 K	91.05
119.27 K	92.33
121.23 K	93.59
123.19 K	94.91
125.16 K	96.2
127.12 K	97.48
129.09 K	98.86
131.06 K	100.1
133.04 K	101.5
135.02 K	102.8
137 K	104.2
138.98 K	105.5
140.97 K	106.9
142.95 K	108.3
144.93 K	109.7
146.93 K	111.1
148.92 K	112.6
150.91 K	114
152.9 K	115.4
154.89 K	116.8
156.89 K	118.3
158.89 K	119.8
160.89 K	121.3
162.89 K	122.7
164.89 K	124.3
166.9 K	125.8
168.9 K	127.4
170.91 K	128.9
172.92 K	130.5
174.93 K	132
176.93 K	133.7
178.93 K	135.1
180.94 K	136.8
182.95 K	138.3
184.97 K	140.1
186.99 K	141.6
189 K	143.3
191.02 K	144.9
193.03 K	146.6
195.05 K	148.4
197.07 K	150.1
199.09 K	151.7
201.1 K	153.4
203.13 K	155.1
205.16 K	156.8
207.18 K	158.6
209.21 K	160.4
211.24 K	162.1
213.27 K	163.9
215.3 K	165.7
217.33 K	167.6
219.37 K	169.4
221.4 K	171.2
223.43 K	173
224.08 K	173.6
225.46 K	174.9
226.05 K	175.4
227.5 K	176.8
228.08 K	177.3
230.12 K	179.2
232.16 K	181.1
234.19 K	183.1
236.23 K	184.9
238.27 K	186.8
240.31 K	188.8
242.35 K	190.8
244.39 K	192.5
246.43 K	194.5
248.47 K	196.4
250.51 K	198.4
252.55 K	200.3
254.59 K	202.2
256.64 K	204.1
258.68 K	206.2
260.73 K	208
262.77 K	209.9
264.81 K	211.9
266.86 K	213.7
268.9 K	215.5
270.94 K	217.3
272.99 K	219.2
275.03 K	221
277.08 K	222.9
279.13 K	224.5
281.18 K	226.3
283.22 K	227.9
285.27 K	229.8
287.32 K	231.5
289.37 K	233.1
291.42 K	234.7
293.46 K	236.3
295.51 K	237.9
297.56 K	239.7
299.61 K	241.3
301.65 K	242.8
303.7 K	244.6
305.75 K	246
307.8 K	247.6
309.86 K	249.2
311.91 K	250.7
313.96 K	252.3
316.02 K	253.9
318.07 K	255.5
320.14 K	256.9
322.2 K	258.6
324.26 K	260.2
326.32 K	261.8
328.38 K	263.2
330.44 K	264.8
332.5 K	266.3
334.57 K	267.8
336.63 K	269.4
338.69 K	270.9
340.76 K	272.4
342.83 K	274.2
344.9 K	275.7
346.97 K	277.1
349.04 K	278.9
351.11 K	280.5
353.2 K	282.1
355.27 K	283.8
357.34 K	285.5
359.41 K	287.2
361.48 K	288.9
363.56 K	290.4
365.63 K	292
367.7 K	293.7
